{"source": "patent US12037354B2", "about": "“Cyclic pantetheine derivatives and uses thereof” (VectivBio Comet AG, priority 2018, dated 2024)", "test_system": "Pkd1-/- mouse inner medullary collecting duct cells (mIMRFNPKD 5E4)", "experiment": "mPKD 3D cyst swelling assay (forskolin-induced), Example 818", "assay_type": "cell-based", "details": "50 uM, after 72 hours of forskolin exposure", "protocol": "Cell model and control compounds. mIMCD3 WT cells were obtained via ATCC and modified to create the mIMRFNPKD 5E4 cell line, which has a CRISPR-Cas mediated knockout for Pkd1 as described SLAS Discov. 2017 September; 22(8):974-984. doi: 10.1177/2472555217716056. Cells were cultured in DMEM/F12 (Sigma)+10% FBS (Sigma)+0.5% Pen/Strep (Gibco)+1% GluMax (Gibco). Control compounds used were forskolin (Calbiochem, 344282), Rapamycin (Selleckchem, S1039) and Staurosporin (Selleckchem, S1421).\nThe 3D mouse cyst swelling assay was performed with Pkd1^−/− mouse inner medullary collecting duct cells (mIMRFNPKD 5E4). The cyst swelling protocol that was used was described previously (SLAS Discov. 2017 September; 22(8):974-984. doi: 10.1177/2472555217716056), with further optimization.\n3D culture and compound exposure. mIMRFNPKD 5E4 cells were mixed with Cyst-Gel (OcellO BV). 15 μL of cell-gel mix was pipetted to 384-well plates (Greiner μClear, Greiner Bio-One B.V.) using a CyBio Felix 96/60 robotic liquid dispenser (Analyik Jena AG). […]\nImaging and image analysis. […] Cyst area was determined by calculating for the area in px of each object in every in-focus plain. […] (N represented is number of wells) Fraction of apoptotic nuclei as an indicator of toxicity was calculated as the amount of nuclei without actin signal relative to the total amount of nuclei, both as count-measurements. […]"}
{"smiles": "COC(=O)/C=C/C(=O)SCCNC(=O)CCNC(=O)[C@@H]1OP(=O)(O)OCC1(C)C", "note": "[Compound 21]", "values": [{"measurement": "% prevention of forskolin-induced cyst swelling", "result": "≥10", "unit": "%"}]}
